Measured values: ChEMBL document CHEMBL5506010, “Butyrylcholinesterase-Activated Near-Infrared Fluorogenic Probe for In Vivo Theranostics of Alzheimer's Disease” (J Med Chem, 2024)
The source made the active and inactive calls. The rule behind the calls is not given here.

Legend:
[1] = Toxicity in APP/PS1 transgenic AD mouse model assessed as effect on body weight administered intravenously once every 2 days for 10 times and measured on day 30; conditions: in vivo, iv, 720 h, time 30 day
SH-SY5Y [2] = experiment: Neuroprotective activity against amyloid-beta (1 to 42)-induced human SH-SY5Y cells assessed as decrease in amyloid beta (1 to 42) level in culture medium at 10 to 20 uM incubated for 24 hrs by ELISA; format: functional, cell-based; conditions: dose 10-20 µM
Mus musculus [3] = experiment: Antialzheimer activity in APP/PS1 transgenic AD mouse model assessed as improvement in learning administered intravenously once every 2 days for 10 times followed by morris water maze training from day 21 to 25 and measured on day 26 by Morris water maze test; format: functional, organism-based; conditions: route iv, time 26.0 day
Acetylcholinesterase [4] = target: T1, Acetylcholinesterase (Homo sapiens, UniProt P22303); experiment: Binding affinity to AChE (unknown origin) by fluorescence analysis
[5] = Stability of compound at pH 12 measured within 3 mins by microplate reader analysis; format: physicochemical; conditions: buffer, pH 12, 0.05 h
Homo sapiens [6] = species on record: Homo sapiens; experiment: Binding affinity to lysozyme (unknown origin) by fluorescence analysis
[7] = Permeability of compound incubated for 18 hrs by PAMPA-BBB based UV plate spectroscopic reader analysis; format: ADME; conditions: read-out: permeability
SH-SY5Y [8] = experiment: Neuroprotective activity against amyloid-beta (1 to 42)-induced human SH-SY5Y cells assessed as decrease in amyloid beta (1 to 42) level in cell lysate at 10 to 20 uM incubated for 24 hrs by ELISA; format: functional, cell-based; conditions: dose 10-20 µM
Cholinesterase [9] = target: T2, Cholinesterase (Homo sapiens, UniProt P06276); experiment: Binding affinity to BChE (unknown origin) in PBS assessed as cyan coloured appearance of compound by UV/vis absorption analysis
[10] = Neurotoxicity in mouse HT-22 cells assessed as reduction in cell viability at 50 uM; format: toxicity, cell-based; conditions: ht-22, 50 µM
PC-12 [11] = experiment: Binding affinity to BChE in rat PC-12 cells at 10 uM incubated for 1 hrs by fluorescence based confocal laser scanning microscopic analysis; format: cell-based
[12] = Selectivity ratio of fluorescence intensity for binding affinity to AChE (unknown origin) in PBS to fluorescence intensity for binding affinity to BChE (unknown origin) in PBS
SH-SY5Y [13] = experiment: Neuroprotective activity against amyloid-beta (1 to 42)-induced human SH-SY5Y cells assessed as increase in ACh level in culture medium at 10 to 20 uM incubated for 24 hrs by ELISA; format: functional, cell-based; conditions: dose 10-20 µM
Cholinesterase [14] = target: T2, Cholinesterase; experiment: Inhibition of human BChE using butyrylthiocholineiodide as substrate preincubated for 5 mins followed by substrate addition and measured immediately by Ellmans method
Cholinesterase [15] = target: T2, Cholinesterase; experiment: Binding affinity to BChE (unknown origin) in PBS assessed as red-shift in maximum absorption to 680 nm by UV/vis absorption analysis
[16] = Stability of compound in male ICR mouse brain at 100 uM, iv measured within 5 mins by fluorescence microplate reader; format: ADME, organism-based
Cholinesterase [17] = target: T2, Cholinesterase; experiment: Binding affinity to BChE in human LN-229 cells at 10 uM incubated for 1 hrs by fluorescence based confocal laser scanning microscopic analysis; format: cell-based
Cholinesterase [18] = target: T2, Cholinesterase; experiment: Binding affinity to BChE (unknown origin) in PBS assessed as Michaelis-menten constant by fluorometric method
PC-12 [19] = experiment: Binding affinity to BChE in rat PC-12 cells assessed as increase in fluorescence intensity at 10 uM incubated for 24 hrs by fluorescence based confocal laser scanning microscopic analysis; format: cell-based
Cholinesterase [20] = target: T2, Cholinesterase; experiment: Binding affinity to BChE (unknown origin) in PBS assessed as maximum emission wavelength at 710 nm by fluorescence spectra analysis
Mus musculus [21] = experiment: Antialzheimer activity in APP/PS1 transgenic AD mouse model assessed as improvement in NC scores administered intravenously once every 2 days for 10 times and measured on day 27 by Nest construction test; format: functional, organism-based; conditions: route iv, time 27.0 day
Homo sapiens [22] = species on record: Homo sapiens; experiment: Binding affinity to ALP (unknown origin) by fluorescence analysis
Mus musculus [23] = experiment: Antialzheimer activity in APP/PS1 transgenic AD mouse model assessed as improvement in learning administered intravenously once every 2 days for 10 times and measured on day 26 by Y maze test; format: functional, organism-based; conditions: route iv, time 26.0 day
Cholinesterase [24] = target: T2, Cholinesterase; experiment: Binding affinity to BChE (unknown origin) assessed as enzyme mediated compound hydrolysis measured after 1 min by HPLC analysis relative to control; design: scale not given: the % may be the effect or the level left
[25] = target: Cholinesterase (Mus musculus) (UniProt Q03311); experiment: Binding affinity to BChE in mouse HT-22 cells at 10 uM incubated for 1 hrs by fluorescence based confocal laser scanning microscopic analysis; format: cell-based
Homo sapiens [26] = species on record: Homo sapiens; experiment: Binding affinity to carboxylesterase (unknown origin) by fluorescence analysis
Cholinesterase [27] = target: T2, Cholinesterase; experiment: Binding affinity to BChE (unknown origin) in PBS assessed as fold change in fluorescence intensity at 710 nm by fluorescence spectra analysis
Mus musculus [28] = experiment: Antialzheimer activity in APP/PS1 transgenic AD mouse model assessed as decrease in amyloid beta (1 to 42) level administered intravenously once every 2 days for 10 times and measured on day 30 by ELISA; format: functional, organism-based; conditions: route iv, time 30.0 day
[29] = Stability of compound in male ICR mouse brain at 100 uM, iv measured after 30 to 1440 mins by fluorescence microplate reader; format: ADME, organism-based; conditions: time 30-1440 min
Cholinesterase [30] = target: T2, Cholinesterase; experiment: Binding affinity to BChE (unknown origin) in PBS assessed as maximum initial reaction rate by fluorometric method
Mus musculus [31] = experiment: Antialzheimer activity in APP/PS1 transgenic AD mouse model assessed as increase in ACh level administered intravenously once every 2 days for 10 times and measured on day 30 by ELISA; format: functional, organism-based; conditions: route iv, time 30.0 day
[32] = Drug accumulation in brain of APP/PS1 transgenic AD-mouse model at 100 uM, iv measured after 24 hrs […] by fluorescence imaging analysis; format: ADME, organism-based; conditions: in vivo
SH-SY5Y [33] = experiment: Neuroprotective activity against amyloid-beta (1 to 42)-induced cell death in human SH-SY5Y cells assessed as increase in cell survival at 10 to 50 uM preincubated with compound for 2 hrs followed by amyloid beta (1 to 42) addition and measured after 24 hrs by MTT assay; format: functional, cell-based; conditions: dose 10-50 µM, time 26.0 hrs
Mus musculus [34] = experiment: Antialzheimer activity in APP/PS1 transgenic AD mouse model assessed as improvement in memory administered intravenously once every 2 days for 10 times followed by morris water maze training from day 21 to 25 and measured on day 26 by Morris water maze test; format: functional, organism-based; conditions: route iv, time 26.0 day
[35] = Stability of compound in male ICR mouse plasma at 100 uM, iv measured after 30 mins by fluorescence microplate reader; format: ADME, organism-based; conditions: 0.5 h
SH-SY5Y [36] = experiment: Neuroprotective activity against amyloid-beta (1 to 42)-induced human SH-SY5Y cells assessed as increase in ACh level in cell lysate at 10 to 20 uM incubated for 24 hrs by ELISA; format: functional, cell-based; conditions: dose 10-20 µM
[37] = Drug uptake in HEK293T cells transfected with BChE siRNA assessed as increase in fluorescence intensity by fluorescence based confocal laser scanning microscopic analysis; format: ADME, cell-based; conditions: human, hek-293t
Cholinesterase [38] = target: T2, Cholinesterase; experiment: Stability of compound assessed as BChE(unknown origin)-mediated compound hydrolysis at 10 uM by fluorescence based analysis; format: ADME
Cholinesterase [39] = target: T2, Cholinesterase; experiment: Binding affinity to BChE (unknown origin) assessed as enzyme mediated compound hydrolysis measured after 5 min by HPLC analysis relative to control; design: scale not given: the % may be the effect or the level left
PC-12 [40] = experiment: Binding affinity to BChE in rat PC-12 cells assessed as increase in fluorescence intensity incubated for 1 hrs by fluorescence based confocal laser scanning microscopic analysis; format: cell-based; conditions: dose 1-10 µM
Cholinesterase [41] = target: T2, Cholinesterase; experiment: Binding affinity to BChE (unknown origin) in PBS assessed as […] at 680 nm by UV/vis absorption analysis
Cholinesterase [42] = target: T2, Cholinesterase; experiment: Binding affinity to BChE in human SH-SY5Y cells at 10 uM incubated for 1 hrs by fluorescence based confocal laser scanning microscopic analysis; format: cell-based
[43] = Drug accumulation in brain of APP/PS1 transgenic AD-mouse model at 100 uM, iv measured at 5 to 60 mins by fluorescence imaging analysis; format: ADME, organism-based; conditions: in vivo, time 5-60 min
Acetylcholinesterase [44] = target: T1, Acetylcholinesterase; experiment: Stability of compound assessed as human serum AChE-mediated compound hydrolysis by fluorescence based analysis; format: ADME
Cholinesterase [45] = target: Cholinesterase (Equus caballus, UniProt P81908); experiment: Stability of compound assessed as horse serum BChE-mediated compound hydrolysis by fluorescence based analysis; format: ADME
Chain of Cholinesterase (Equus caballus, UniProt P81908) (P81908 whole entry): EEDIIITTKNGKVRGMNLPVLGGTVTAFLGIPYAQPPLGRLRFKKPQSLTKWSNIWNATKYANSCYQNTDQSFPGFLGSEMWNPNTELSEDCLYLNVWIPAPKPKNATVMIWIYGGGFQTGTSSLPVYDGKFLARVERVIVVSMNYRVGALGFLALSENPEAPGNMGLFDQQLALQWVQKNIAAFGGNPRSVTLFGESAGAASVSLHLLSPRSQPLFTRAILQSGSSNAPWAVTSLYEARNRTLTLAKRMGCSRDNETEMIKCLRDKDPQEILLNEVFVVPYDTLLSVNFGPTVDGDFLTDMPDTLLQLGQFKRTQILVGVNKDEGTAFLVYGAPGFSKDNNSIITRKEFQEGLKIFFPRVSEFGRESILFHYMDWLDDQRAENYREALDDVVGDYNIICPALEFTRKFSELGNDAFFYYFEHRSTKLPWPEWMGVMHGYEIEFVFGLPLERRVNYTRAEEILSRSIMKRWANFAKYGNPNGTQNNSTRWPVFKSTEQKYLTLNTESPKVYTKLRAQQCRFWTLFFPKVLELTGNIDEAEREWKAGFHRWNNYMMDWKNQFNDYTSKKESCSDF

T2 sequence (P06276 whole entry): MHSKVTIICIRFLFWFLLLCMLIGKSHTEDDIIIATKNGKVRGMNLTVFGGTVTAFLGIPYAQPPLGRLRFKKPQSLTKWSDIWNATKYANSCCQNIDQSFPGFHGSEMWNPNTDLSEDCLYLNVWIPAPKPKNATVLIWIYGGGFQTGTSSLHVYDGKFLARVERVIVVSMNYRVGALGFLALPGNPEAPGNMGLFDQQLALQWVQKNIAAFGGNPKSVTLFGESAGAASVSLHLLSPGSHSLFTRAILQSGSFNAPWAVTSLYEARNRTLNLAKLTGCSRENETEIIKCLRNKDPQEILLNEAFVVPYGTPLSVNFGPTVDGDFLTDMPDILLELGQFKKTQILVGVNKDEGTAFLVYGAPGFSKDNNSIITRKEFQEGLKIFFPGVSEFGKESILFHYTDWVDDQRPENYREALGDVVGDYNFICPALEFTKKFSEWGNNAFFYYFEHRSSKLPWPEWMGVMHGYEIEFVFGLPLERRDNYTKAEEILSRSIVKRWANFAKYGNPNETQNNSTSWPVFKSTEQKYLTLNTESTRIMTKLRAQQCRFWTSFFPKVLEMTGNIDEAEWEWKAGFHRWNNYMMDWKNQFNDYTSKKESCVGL
T1 sequence (P22303 whole entry): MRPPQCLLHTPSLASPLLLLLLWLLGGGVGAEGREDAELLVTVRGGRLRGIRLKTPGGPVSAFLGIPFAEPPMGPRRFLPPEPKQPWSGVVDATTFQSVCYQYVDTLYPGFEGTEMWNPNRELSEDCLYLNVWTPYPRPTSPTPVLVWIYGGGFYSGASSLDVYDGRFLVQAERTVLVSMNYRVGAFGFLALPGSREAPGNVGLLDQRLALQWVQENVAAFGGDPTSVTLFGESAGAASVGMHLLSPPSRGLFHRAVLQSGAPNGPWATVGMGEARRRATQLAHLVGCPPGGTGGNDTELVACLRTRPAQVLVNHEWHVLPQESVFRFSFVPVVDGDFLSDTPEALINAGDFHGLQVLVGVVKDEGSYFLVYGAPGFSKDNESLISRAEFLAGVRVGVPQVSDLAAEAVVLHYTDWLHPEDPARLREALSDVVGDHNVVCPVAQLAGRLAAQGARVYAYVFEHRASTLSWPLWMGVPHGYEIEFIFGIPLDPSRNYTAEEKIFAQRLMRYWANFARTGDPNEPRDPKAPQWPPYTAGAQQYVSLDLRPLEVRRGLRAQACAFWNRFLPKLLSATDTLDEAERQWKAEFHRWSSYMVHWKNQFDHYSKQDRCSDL
Chain of Cholinesterase (Mus musculus) (Q03311 whole entry): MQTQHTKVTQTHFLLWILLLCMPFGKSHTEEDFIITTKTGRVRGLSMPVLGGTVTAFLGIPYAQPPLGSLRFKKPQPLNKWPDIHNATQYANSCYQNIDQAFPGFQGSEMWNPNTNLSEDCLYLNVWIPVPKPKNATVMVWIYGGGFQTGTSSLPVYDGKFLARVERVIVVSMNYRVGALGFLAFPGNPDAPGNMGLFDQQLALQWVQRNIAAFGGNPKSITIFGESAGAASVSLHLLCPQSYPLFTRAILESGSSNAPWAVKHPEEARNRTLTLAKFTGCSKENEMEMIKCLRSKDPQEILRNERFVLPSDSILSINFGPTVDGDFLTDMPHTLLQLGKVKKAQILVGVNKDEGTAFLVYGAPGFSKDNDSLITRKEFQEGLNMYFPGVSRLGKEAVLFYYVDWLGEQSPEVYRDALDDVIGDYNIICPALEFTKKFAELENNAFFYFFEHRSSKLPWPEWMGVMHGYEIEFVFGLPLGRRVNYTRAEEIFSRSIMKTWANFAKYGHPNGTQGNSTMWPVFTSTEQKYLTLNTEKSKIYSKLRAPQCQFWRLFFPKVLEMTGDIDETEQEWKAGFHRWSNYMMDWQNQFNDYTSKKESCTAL

Q: Which Activity [1] does the source give for `C#CCCC[N+]1=C(/C=C/C2=C3Oc4cc(OC(=O)C5CC5)ccc4C=C3CCC2)C(C)(C)c2ccccc21.[I-]` here?
A: Non-Toxic

Q: And the Activity (SH-SY5Y [2])?
A: inactive

Q: And the Activity (Mus musculus [3])?
A: inactive

Q: What about the Activity (Acetylcholinesterase [4]) of the same molecule?
A: inactive

Q: What about the Stability [5] of the same molecule?
A: Unstable

Q: What about the Activity (Homo sapiens [6]) of the same molecule?
A: inactive

Q: And the Papp at 18 h [7]?
A: 5.97 ×10⁻⁶ cm/s

Q: And the Activity (SH-SY5Y [8])?
A: inactive

Q: And the Activity (Cholinesterase [9])?
A: Active

Q: And the Activity [10]?
A: Toxic

Q: What about the Activity (PC-12 [11]) of the same molecule?
A: Active

Q: And the Selectivity ratio [12]?
A: 31.4

Q: And the Activity (SH-SY5Y [13])?
A: inactive

Q: And the IC50 (Cholinesterase [14])?
A: > 100000 nM

Q: And the Activity (Cholinesterase [15])?
A: Active

Q: What about the Stability [16] of the same molecule?
A: Stable

Q: What about the Activity (Cholinesterase [17]) of the same molecule?
A: Active

Q: What about the Activity (Cholinesterase [18]) of the same molecule?
A: 9.07 µM

Q: And the Activity (PC-12 [19])?
A: Active

Q: What about the Activity (Cholinesterase [20]) of the same molecule?
A: Active

Q: And the Activity (Mus musculus [21])?
A: inactive

Q: And the Activity (Homo sapiens [22])?
A: inactive

Q: And the Activity (Mus musculus [23])?
A: inactive

Q: What about the Activity (Cholinesterase [24]) of the same molecule?
A: 50%

Q: What about the Activity [25] of the same molecule?
A: Active

Q: And the Activity (Homo sapiens [26])?
A: inactive

Q: What about the fold change (FC) (Cholinesterase [27]) of the same molecule?
A: 21

Q: What about the Activity (Mus musculus [28]) of the same molecule?
A: inactive

Q: And the Stability [29]?
A: Unstable

Q: What about the Activity (Cholinesterase [30]) of the same molecule?
A: 2.08 µM/min

Q: What about the Activity (Mus musculus [31]) of the same molecule?
A: inactive

Q: What about the Drug uptake [32] of the same molecule?
A: Not Active

Q: What about the Activity (SH-SY5Y [33]) of the same molecule?
A: inactive

Q: What about the Activity (Mus musculus [34]) of the same molecule?
A: inactive

Q: What about the Stability [35] of the same molecule?
A: Stable

Q: And the Activity (SH-SY5Y [36])?
A: inactive

Q: And the Drug uptake [37]?
A: Not Active

Q: And the Stability (Cholinesterase [38])?
A: Stable

Q: And the Activity (Cholinesterase [39])?
A: > 90%

Q: And the Activity (PC-12 [40])?
A: Dose-Dependent Effect

Q: And the Activity (Cholinesterase [41])?
A: Active

Q: And the Activity (Cholinesterase [42])?
A: Active

Q: What about the Drug uptake [43] of the same molecule?
A: Active

Q: For `Nc1c2c(nc3ccccc13)CCCC2` [TACRINE], which Activity [10] is on record?
A: Non-Toxic

Q: With `CCN(CC)Cc1ccccc1CNC(=O)c1cccc(NC(=O)c2ccc(F)cc2)c1` as the molecule, how does the Activity [10] read?
A: Non-Toxic

Q: What does the source list for `C#CCCC[N+]1=C(/C=C/C2=C3Oc4cc(OC(C)=O)ccc4C=C3CCC2)C(C)(C)c2ccccc21.[I-]`?
A: Stability (Acetylcholinesterase [44]): Unstable; Stability (Cholinesterase [45]): Unstable

Q: For `CCN(CC)Cc1ccccc1CNC(=O)c1cccc(NC(=O)c2cccc(C(=O)O)c2)c1`, which IC50 (Cholinesterase [14]) is on record?
A: 1.23 nM
